# Source: PubChem BioAssay (NCI)
#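 Five concentrations, 48 hours, 96-well plates. Abbreviation: GI50, concentration required for 50% inhibition of growth. TGI marks complete inhibition of growth.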
# Key:
# Test in all cases: DTP human tumour cell line panel, 48 h
# 786-0 renal = system: 786-0 renal
# A498 renal = system: A498 renal
# A549 NSCLC = system: A549 NSCLC
# ACHN renal = system: ACHN renal
# BT-549 breast = system: BT-549 breast
# CAKI-1 renal = system: CAKI-1 renal
# COLO 205 colon = system: COLO 205 colon
# DU-145 prostate = system: DU-145 prostate
# EKVX NSCLC = system: EKVX NSCLC
# HCC-2998 colon = system: HCC-2998 colon
# HCT-116 colon = system: HCT-116 colon
# HCT-15 colon = system: HCT-15 colon
# HL-60(TB) leukemia = system: HL-60(TB) leukemia
# HOP-62 NSCLC = system: HOP-62 NSCLC
# HOP-92 NSCLC = system: HOP-92 NSCLC
# HT29 colon = system: HT29 colon
# K-562 leukemia = system: K-562 leukemia
# KM12 colon = system: KM12 colon
# M14 melanoma = system: M14 melanoma
# MCF7 breast = system: MCF7 breast
# MDA-MB-435 = system: MDA-MB-435
# MOLT-4 leukemia = system: MOLT-4 leukemia
# NCI-H226 lung = system: NCI-H226 lung
# NCI-H460 lung = system: NCI-H460 lung
# NCI-H522 lung = system: NCI-H522 lung
# NCI/ADR-RES ovarian = system: NCI/ADR-RES ovarian
# OVCAR-3 ovarian = system: OVCAR-3 ovarian
# OVCAR-4 ovarian = system: OVCAR-4 ovarian
# OVCAR-5 ovarian = system: OVCAR-5 ovarian
# OVCAR-8 ovarian = system: OVCAR-8 ovarian
# PC-3 prostate = system: PC-3 prostate
# RPMI-8226 leukemia = system: RPMI-8226 leukemia
# RXF 393 renal = system: RXF 393 renal
# SF-268 CNS = system: SF-268 CNS
# SF-295 CNS = system: SF-295 CNS
# SF-539 CNS = system: SF-539 CNS
# SK-MEL-2 melanoma = system: SK-MEL-2 melanoma
# SK-MEL-28 melanoma = system: SK-MEL-28 melanoma
# SK-MEL-5 melanoma = system: SK-MEL-5 melanoma
# SK-OV-3 ovarian = system: SK-OV-3 ovarian
# SN12C renal = system: SN12C renal
# SNB-75 CNS = system: SNB-75 CNS
# SR leukemia = system: SR leukemia
# SW-620 colon = system: SW-620 colon
# T-47D breast = system: T-47D breast
# TK-10 renal = system: TK-10 renal
# U251 CNS = system: U251 CNS
# UACC-257 melanoma = system: UACC-257 melanoma
# UO-31 renal = system: UO-31 renal
# CCRF-CEM leukemia = system: CCRF-CEM leukemia
# HS 578T breast = system: HS 578T breast
# IGROV1 ovarian = system: IGROV1 ovarian
# LOX IMVI melanoma = system: LOX IMVI melanoma
# MALME-3M melanoma = system: MALME-3M melanoma
# MDA-MB-231 breast = system: MDA-MB-231 breast
# SNB-19 CNS = system: SNB-19 CNS
# UACC-62 melanoma = system: UACC-62 melanoma
compound,measurement,setting,value
Nc1nc(N)c2c(n1)NC(c1ccc(F)cc1)CC(c1ccc(Nc3nc(NCCO)nc(Nc4ccc(Cl)cc4)n3)cc1)=N2 (stereo not given),GI50,786-0 renal,1.36 µM
same,TGI,786-0 renal,3.11 µM
same,GI50,A498 renal,3.72 µM
same,TGI,A498 renal,15.3 µM
same,GI50,A549 NSCLC,3.12 µM
same,TGI,A549 NSCLC,> 100 µM
same,GI50,ACHN renal,3.22 µM
same,TGI,ACHN renal,17.3 µM
same,GI50,BT-549 breast,1.56 µM
same,TGI,BT-549 breast,3.17 µM
same,GI50,CAKI-1 renal,6.14 µM
same,TGI,CAKI-1 renal,39.6 µM
same,GI50,COLO 205 colon,1.49 µM
same,TGI,COLO 205 colon,2.94 µM
same,GI50,DU-145 prostate,1.75 µM
same,TGI,DU-145 prostate,3.5 µM
same,GI50,EKVX NSCLC,1.66 µM
same,TGI,EKVX NSCLC,5.35 µM
same,GI50,HCC-2998 colon,1.61 µM
same,TGI,HCC-2998 colon,3.05 µM
same,GI50,HCT-116 colon,1.2 µM
same,TGI,HCT-116 colon,2.5 µM
same,GI50,HCT-15 colon,1.03 µM
same,TGI,HCT-15 colon,2.84 µM
same,GI50,HL-60(TB) leukemia,0.863 µM
same,TGI,HL-60(TB) leukemia,3.51 µM
same,GI50,HOP-62 NSCLC,1.77 µM
same,TGI,HOP-62 NSCLC,4.3 µM
same,GI50,HOP-92 NSCLC,1.25 µM
same,TGI,HOP-92 NSCLC,3.54 µM
same,GI50,HT29 colon,1.42 µM
same,TGI,HT29 colon,3.15 µM
same,GI50,K-562 leukemia,0.489 µM
same,TGI,K-562 leukemia,> 100 µM
same,GI50,KM12 colon,1.68 µM
same,TGI,KM12 colon,3.71 µM
same,GI50,M14 melanoma,1.66 µM
same,TGI,M14 melanoma,3.3 µM
same,GI50,MCF7 breast,0.956 µM
same,TGI,MCF7 breast,2.43 µM
same,GI50,MDA-MB-435,1.7 µM
same,TGI,MDA-MB-435,3.55 µM
same,GI50,MOLT-4 leukemia,0.532 µM
same,TGI,MOLT-4 leukemia,3.47 µM
same,GI50,NCI-H226 lung,2.49 µM
same,TGI,NCI-H226 lung,7.11 µM
same,GI50,NCI-H460 lung,1.71 µM
same,TGI,NCI-H460 lung,3.63 µM
same,GI50,NCI-H522 lung,1.43 µM
same,TGI,NCI-H522 lung,2.97 µM
same,GI50,NCI/ADR-RES ovarian,7.73 µM
same,TGI,NCI/ADR-RES ovarian,> 100 µM
same,GI50,OVCAR-3 ovarian,1.58 µM
same,TGI,OVCAR-3 ovarian,3.28 µM
same,GI50,OVCAR-4 ovarian,1.93 µM
same,TGI,OVCAR-4 ovarian,6.43 µM
same,GI50,OVCAR-5 ovarian,5.1 µM
same,TGI,OVCAR-5 ovarian,24.4 µM
same,GI50,OVCAR-8 ovarian,1.16 µM
same,TGI,OVCAR-8 ovarian,2.81 µM
same,GI50,PC-3 prostate,1.72 µM
same,TGI,PC-3 prostate,11.4 µM
same,GI50,RPMI-8226 leukemia,1.01 µM
same,TGI,RPMI-8226 leukemia,3.24 µM
same,GI50,RXF 393 renal,1.17 µM
same,TGI,RXF 393 renal,2.63 µM
same,GI50,SF-268 CNS,2.85 µM
same,TGI,SF-268 CNS,12.3 µM
same,GI50,SF-295 CNS,1.96 µM
same,TGI,SF-295 CNS,3.75 µM
same,GI50,SF-539 CNS,1.56 µM
same,TGI,SF-539 CNS,3.15 µM
same,GI50,SK-MEL-2 melanoma,1.67 µM
same,TGI,SK-MEL-2 melanoma,3.1 µM
same,GI50,SK-MEL-28 melanoma,1.7 µM
same,TGI,SK-MEL-28 melanoma,3.18 µM
same,GI50,SK-MEL-5 melanoma,1.46 µM
same,TGI,SK-MEL-5 melanoma,2.78 µM
same,GI50,SK-OV-3 ovarian,12.9 µM
same,TGI,SK-OV-3 ovarian,25.5 µM
same,GI50,SN12C renal,2.08 µM
same,TGI,SN12C renal,5.19 µM
same,GI50,SNB-75 CNS,3.35 µM
same,TGI,SNB-75 CNS,16 µM
same,GI50,SR leukemia,0.672 µM
same,TGI,SR leukemia,4.75 µM
same,GI50,SW-620 colon,1.6 µM
same,TGI,SW-620 colon,3.27 µM
same,GI50,T-47D breast,1.27 µM
same,TGI,T-47D breast,3.2 µM
same,GI50,TK-10 renal,4.61 µM
same,TGI,TK-10 renal,15.5 µM
same,GI50,U251 CNS,1.37 µM
same,TGI,U251 CNS,2.73 µM
same,GI50,UACC-257 melanoma,1.85 µM
same,TGI,UACC-257 melanoma,3.52 µM
same,GI50,UO-31 renal,3.07 µM
same,TGI,UO-31 renal,20.4 µM
c1ccc2c(NCCCn3ccnc3)c3oc4ccccc4c3nc2c1,GI50,786-0 renal,2.57 µM
same,TGI,786-0 renal,13.2 µM
same,GI50,A498 renal,2.89 µM
same,TGI,A498 renal,9.13 µM
same,GI50,ACHN renal,0.942 µM
same,TGI,ACHN renal,10.5 µM
same,GI50,BT-549 breast,1.98 µM
same,TGI,BT-549 breast,4.75 µM
same,GI50,CAKI-1 renal,1.7 µM
same,TGI,CAKI-1 renal,6.56 µM
same,GI50,CCRF-CEM leukemia,2.35 µM
same,TGI,CCRF-CEM leukemia,18 µM
same,GI50,COLO 205 colon,1.42 µM
same,TGI,COLO 205 colon,3.04 µM
same,GI50,DU-145 prostate,2.63 µM
same,TGI,DU-145 prostate,15.5 µM
same,GI50,EKVX NSCLC,2.8 µM
same,TGI,EKVX NSCLC,11 µM
same,GI50,HCC-2998 colon,1.36 µM
same,TGI,HCC-2998 colon,2.99 µM
same,GI50,HCT-116 colon,0.518 µM
same,TGI,HCT-116 colon,10.3 µM
same,GI50,HCT-15 colon,1.79 µM
same,TGI,HCT-15 colon,10.6 µM
same,GI50,HL-60(TB) leukemia,2.5 µM
same,TGI,HL-60(TB) leukemia,7.72 µM
same,GI50,HOP-62 NSCLC,1.59 µM
same,TGI,HOP-62 NSCLC,4.3 µM
same,GI50,HOP-92 NSCLC,1.11 µM
same,TGI,HOP-92 NSCLC,3.68 µM
same,GI50,HS 578T breast,2.79 µM
same,TGI,HS 578T breast,14 µM
same,GI50,HT29 colon,1.05 µM
same,TGI,HT29 colon,3.08 µM
same,GI50,IGROV1 ovarian,2.82 µM
same,TGI,IGROV1 ovarian,10.8 µM
same,GI50,K-562 leukemia,1.81 µM
same,TGI,K-562 leukemia,> 100 µM
same,GI50,KM12 colon,2.51 µM
same,TGI,KM12 colon,> 100 µM
same,GI50,LOX IMVI melanoma,1.35 µM
same,TGI,LOX IMVI melanoma,3.3 µM
same,GI50,M14 melanoma,1.89 µM
same,TGI,M14 melanoma,3.56 µM
same,GI50,MALME-3M melanoma,2.66 µM
same,TGI,MALME-3M melanoma,6.23 µM
same,GI50,MCF7 breast,1.78 µM
same,TGI,MCF7 breast,7.62 µM
same,GI50,MDA-MB-231 breast,2.04 µM
same,TGI,MDA-MB-231 breast,7.73 µM
same,GI50,MDA-MB-435,2.13 µM
same,TGI,MDA-MB-435,5.2 µM
same,GI50,MOLT-4 leukemia,0.524 µM
same,TGI,MOLT-4 leukemia,71.8 µM
same,GI50,NCI-H226 lung,1.94 µM
same,TGI,NCI-H226 lung,4.7 µM
same,GI50,NCI-H460 lung,1.27 µM
same,TGI,NCI-H460 lung,8.27 µM
same,GI50,NCI-H522 lung,1.58 µM
same,TGI,NCI-H522 lung,3.63 µM
same,GI50,NCI/ADR-RES ovarian,1.87 µM
same,TGI,NCI/ADR-RES ovarian,6.18 µM
same,GI50,OVCAR-3 ovarian,3.38 µM
same,TGI,OVCAR-3 ovarian,> 100 µM
same,GI50,OVCAR-4 ovarian,2.12 µM
same,TGI,OVCAR-4 ovarian,7.47 µM
same,GI50,OVCAR-5 ovarian,1.99 µM
same,TGI,OVCAR-5 ovarian,6.54 µM
same,GI50,OVCAR-8 ovarian,1.58 µM
same,TGI,OVCAR-8 ovarian,4.55 µM
same,GI50,PC-3 prostate,2.08 µM
same,TGI,PC-3 prostate,6.85 µM
same,GI50,RPMI-8226 leukemia,2.04 µM
same,TGI,RPMI-8226 leukemia,5.62 µM
same,GI50,RXF 393 renal,1.41 µM
same,TGI,RXF 393 renal,3.23 µM
same,GI50,SF-268 CNS,2.2 µM
same,TGI,SF-268 CNS,12.1 µM
same,GI50,SF-295 CNS,2.53 µM
same,TGI,SF-295 CNS,10.5 µM
same,GI50,SF-539 CNS,1.71 µM
same,TGI,SF-539 CNS,3.94 µM
same,GI50,SK-MEL-2 melanoma,1.85 µM
same,TGI,SK-MEL-2 melanoma,3.6 µM
same,GI50,SK-MEL-28 melanoma,2.15 µM
same,TGI,SK-MEL-28 melanoma,4.32 µM
same,GI50,SK-MEL-5 melanoma,2.27 µM
same,TGI,SK-MEL-5 melanoma,5.14 µM
same,GI50,SK-OV-3 ovarian,2.3 µM
same,TGI,SK-OV-3 ovarian,6.85 µM
same,GI50,SN12C renal,1.7 µM
same,TGI,SN12C renal,11 µM
same,GI50,SNB-19 CNS,2.6 µM
same,TGI,SNB-19 CNS,14.2 µM
same,GI50,SNB-75 CNS,1.85 µM
same,TGI,SNB-75 CNS,4.93 µM
same,GI50,SR leukemia,1.73 µM
same,TGI,SR leukemia,> 100 µM
same,GI50,SW-620 colon,0.792 µM
same,TGI,SW-620 colon,10.9 µM
same,GI50,T-47D breast,2.31 µM
same,TGI,T-47D breast,8.53 µM
same,GI50,TK-10 renal,3.29 µM
same,TGI,TK-10 renal,8.62 µM
same,GI50,U251 CNS,2.33 µM
same,TGI,U251 CNS,10.3 µM
same,GI50,UACC-257 melanoma,2.35 µM
same,TGI,UACC-257 melanoma,6 µM
same,GI50,UACC-62 melanoma,2.01 µM
same,TGI,UACC-62 melanoma,4.62 µM
same,GI50,UO-31 renal,1.42 µM
same,TGI,UO-31 renal,3.28 µM
